Where “and” joins values, the source holds several entries; their conditions need not be identical. Identical values can stand only once. Calls of active or inactive are those of the source.
Legend:
Vero [1] = test: cells; type: functional, cell-based; conditions: Chlorocebus sabaeus
HeLa = test: ATP-based viability loss in HeLa cells – cell-based, CellTiter-Glo luminescence, cherry-pick samples, cytotoxicity control for MITF activator project, dose response (AID 540259); type: functional; conditions: Homo sapiens
Vero [2] = test: cells; type: functional; conditions: Chlorocebus sabaeus
[3] = viability of uninfected HEp-2 cells – cell-based, HTS, cytotoxicity control for RSV inhibitor project, dose response (AID 2410); type: functional; conditions: human respiratory syncytial virus
[4] = target: Vascular endothelial growth factor receptor 2 (Homo sapiens, UniProt P35968); type: functional
Aurora kinase A = target: T1, Aurora kinase A (Homo sapiens, UniProt O14965); type: functional;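 further: value from the Navigating the Kinome kinase panel profiling, panel entry STK6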
T1 sequence (O14965 whole entry): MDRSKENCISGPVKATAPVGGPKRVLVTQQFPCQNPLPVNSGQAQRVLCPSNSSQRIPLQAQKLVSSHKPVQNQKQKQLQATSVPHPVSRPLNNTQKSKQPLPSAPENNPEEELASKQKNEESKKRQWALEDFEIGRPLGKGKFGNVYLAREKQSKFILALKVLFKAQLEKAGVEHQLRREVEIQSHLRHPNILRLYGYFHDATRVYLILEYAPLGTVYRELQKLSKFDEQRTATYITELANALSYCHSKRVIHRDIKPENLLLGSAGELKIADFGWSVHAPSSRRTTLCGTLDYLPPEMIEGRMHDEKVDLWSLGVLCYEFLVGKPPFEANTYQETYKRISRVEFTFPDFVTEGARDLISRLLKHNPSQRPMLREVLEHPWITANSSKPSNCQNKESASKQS

Aurora kinase B = Aurora kinase B (Homo sapiens, UniProt Q96GD4); type: functional
Cytochrome P450 1A2 = target: T2, Cytochrome P450 1A2 (Homo sapiens, UniProt P05177);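 further: PubChem cytochrome P450 panel assay, CYP1A2 panel member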
T2 sequence (P05177 whole entry): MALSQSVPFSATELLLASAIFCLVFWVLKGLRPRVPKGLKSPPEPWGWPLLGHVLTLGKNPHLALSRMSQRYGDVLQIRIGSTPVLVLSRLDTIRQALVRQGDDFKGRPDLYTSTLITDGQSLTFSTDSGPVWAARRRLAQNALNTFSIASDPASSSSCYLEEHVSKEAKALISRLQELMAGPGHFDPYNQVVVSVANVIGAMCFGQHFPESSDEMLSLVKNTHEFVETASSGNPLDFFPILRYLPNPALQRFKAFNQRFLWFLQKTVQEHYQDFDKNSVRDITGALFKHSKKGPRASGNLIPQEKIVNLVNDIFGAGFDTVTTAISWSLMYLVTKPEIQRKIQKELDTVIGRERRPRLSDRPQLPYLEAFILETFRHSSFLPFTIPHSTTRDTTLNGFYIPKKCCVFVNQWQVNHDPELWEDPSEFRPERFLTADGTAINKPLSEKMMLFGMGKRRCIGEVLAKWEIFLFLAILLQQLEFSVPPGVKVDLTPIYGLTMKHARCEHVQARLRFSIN

Sequence of Aurora kinase B (Q96GD4 whole entry): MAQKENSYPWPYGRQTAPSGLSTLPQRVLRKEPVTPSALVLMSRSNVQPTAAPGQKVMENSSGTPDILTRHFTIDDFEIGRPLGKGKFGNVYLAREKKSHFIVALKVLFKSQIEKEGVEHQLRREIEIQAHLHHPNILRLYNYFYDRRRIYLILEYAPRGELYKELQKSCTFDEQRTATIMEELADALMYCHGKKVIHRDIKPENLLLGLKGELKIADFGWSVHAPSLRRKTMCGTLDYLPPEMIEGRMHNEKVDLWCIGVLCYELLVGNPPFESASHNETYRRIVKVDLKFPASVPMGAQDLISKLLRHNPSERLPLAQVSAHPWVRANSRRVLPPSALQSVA
Sequence of Vascular endothelial growth factor receptor 2 (P35968 whole entry): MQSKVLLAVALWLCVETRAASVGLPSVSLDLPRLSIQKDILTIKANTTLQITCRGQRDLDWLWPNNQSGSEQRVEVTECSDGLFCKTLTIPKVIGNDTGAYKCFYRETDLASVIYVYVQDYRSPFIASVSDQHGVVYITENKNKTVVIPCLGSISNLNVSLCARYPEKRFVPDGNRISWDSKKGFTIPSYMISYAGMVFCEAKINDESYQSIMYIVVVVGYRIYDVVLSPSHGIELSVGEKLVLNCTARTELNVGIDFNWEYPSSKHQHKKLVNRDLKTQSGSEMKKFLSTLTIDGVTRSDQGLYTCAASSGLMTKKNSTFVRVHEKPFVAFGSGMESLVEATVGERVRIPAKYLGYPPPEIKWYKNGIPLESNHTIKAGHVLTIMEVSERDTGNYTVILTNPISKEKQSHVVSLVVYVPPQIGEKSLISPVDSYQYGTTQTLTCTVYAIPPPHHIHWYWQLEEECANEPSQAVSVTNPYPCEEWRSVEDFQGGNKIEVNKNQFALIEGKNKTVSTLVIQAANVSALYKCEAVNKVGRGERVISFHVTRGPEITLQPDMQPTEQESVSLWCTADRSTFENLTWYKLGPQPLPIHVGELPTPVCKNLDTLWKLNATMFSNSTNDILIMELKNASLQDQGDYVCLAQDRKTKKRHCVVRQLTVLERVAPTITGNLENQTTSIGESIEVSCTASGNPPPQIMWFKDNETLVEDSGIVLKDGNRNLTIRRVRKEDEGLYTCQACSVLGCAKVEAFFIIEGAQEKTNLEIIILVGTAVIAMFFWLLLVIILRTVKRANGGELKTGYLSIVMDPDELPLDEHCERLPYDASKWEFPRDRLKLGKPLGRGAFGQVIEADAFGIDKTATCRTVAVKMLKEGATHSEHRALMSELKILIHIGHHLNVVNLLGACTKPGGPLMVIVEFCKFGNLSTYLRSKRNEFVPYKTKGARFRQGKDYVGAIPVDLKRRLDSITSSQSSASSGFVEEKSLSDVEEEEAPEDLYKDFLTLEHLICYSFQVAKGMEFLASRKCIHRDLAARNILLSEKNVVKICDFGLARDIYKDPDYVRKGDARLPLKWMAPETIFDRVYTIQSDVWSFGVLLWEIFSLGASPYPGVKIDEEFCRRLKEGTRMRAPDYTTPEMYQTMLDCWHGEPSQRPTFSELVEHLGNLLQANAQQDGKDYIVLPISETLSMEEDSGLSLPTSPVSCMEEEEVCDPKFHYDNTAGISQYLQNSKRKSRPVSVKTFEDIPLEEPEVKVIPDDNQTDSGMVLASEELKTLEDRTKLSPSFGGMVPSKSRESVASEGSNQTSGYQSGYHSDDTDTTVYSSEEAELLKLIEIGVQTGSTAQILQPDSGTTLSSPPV

## Cc1ccc(-c2nc(CCN3C(=O)c4ccccc4C3=O)cs2)cc1
Vero [1]
  IC50: > 25 µM (active)
cells
  IC50: 47.1 µM (active)

## CCCC(=O)Nc1ccc(C#Cc2ccccc2)cc1
HeLa
  AC50: 173 µM (active)

## CN(C)CC1CCC/C(=C\c2ccc(OC(=O)/C=C/c3ccc(Cl)c(Cl)c3)cc2)C1=O (stereo unspecified)
Vero [1]
  IC50: > 25 µM (active)
Vero [2]
  CC50: 11.5 µM (active)

## CSc1nnc2c3ccccc3n(CCc3ccccc3)c2n1
[3]
  CC50: > 50 µM (active)
Vero [1]
  IC50: > 12.5 µM (active)

## COc1cccc(S(=O)(=O)Nc2ccc3c(c2)C(=NO)c2ccccc2-3)c1
[4]
  Ki: 3.98 µM (active) and 794 nM (active)
Aurora kinase A
  Ki: > 2 µM (inactive) and 2 µM (active)
Aurora kinase B
  Ki: 6.31 nM (active) and 15.8 nM (active)

## COC(=O)[C@@]1(Cc2ccc(F)cc2)[C@H]2c3cc(C(=O)N(C)C)n(Cc4cc(F)c(F)c(F)c4)c3C[C@H]2CN1C(=O)c1ccccc1
Cytochrome P450 1A2
  AC50: inconclusive

Source: ChEMBL document CHEMBL1201862, “PubChem BioAssay data set” (2004)
